Measurements as given in US20260262643A1, “HERBICIDAL BENZOXAZINES” (FMC CORPORATION, priority 2022, published 2026).

Columns and labels:
barnyardgrass [1] = assay: Test B flooded paddy test; assay type: in vivo, Echinochloa crus-galli; details: 250 g ai/ha, Flood, 13 days, 0 to 100 scale (0 no effect, 100 complete control)
Summary of the method: (§1)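 Flooded to 3 cm at treatment time, 2-leaf plants got the test compound applied straight into the paddy water. They then stayed under constant flood in a greenhouse for 13 days. Ratings used a 0 to 100 visual scale.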

soybean [2] = assay: Test A postemergence; assay type: in vivo, Glycine max; details: postemergence, 10 days; for Soybean plant response rating: 125 g ai/ha, 0 to 100 scale, 0 no effect, 100 complete control; for Plant response rating, Soybean: 500 g ai/ha, visual injury, 0 to 100 scale (0 no effect, 100 complete control)
Summary of the method: (§2)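 Seeds in loam–sand blend received a directed preemergence soil spray of compound in non-phytotoxic solvent with surfactant; postemergence plants (2–10 cm, one- to two-leaf stage) were sprayed with the same formulation. After 10 days in greenhouse, injury was rated visually versus untreated controls, 0 (no effect) to 100 (complete control).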

wheat [3] = assay: Test A postemergence; assay type: in vivo, Triticum aestivum; details: postemergence, 10 days; for Wheat plant response rating: 125 g ai/ha, 0 to 100 scale, 0 no effect, 100 complete control; for Plant response rating, Wheat: 500 g ai/ha, visual injury, 0 to 100 scale (0 no effect, 100 complete control)
Summary of the method: as §2

corn [4] = assay: Test A postemergence; assay type: in vivo, Zea mays; details: postemergence, 10 days; for Corn plant response rating: 125 g ai/ha, 0 to 100 scale, 0 no effect, 100 complete control; for Plant response rating, Corn: 500 g ai/ha, visual injury, 0 to 100 scale (0 no effect, 100 complete control)
Summary of the method: as §2

oat, wild [5] = assay: Test A postemergence; assay type: in vivo, Avena fatua; details: postemergence, 10 days; for Oat, Wild plant response rating: 125 g ai/ha, 0 to 100 scale, 0 no effect, 100 complete control; for Plant response rating, Oat, Wild: 500 g ai/ha, visual injury, 0 to 100 scale (0 no effect, 100 complete control)
Summary of the method: as §2

soybean [6] = assay: Test A preemergence; assay type: in vivo, Glycine max; details: 0 to 100 scale
Summary of the method: as §2

horseweed = assay: Test A postemergence; assay type: in vivo, Erigeron canadensis; details: postemergence, 10 days; for Horseweed plant response rating: 125 g ai/ha, 0 to 100 scale, 0 no effect, 100 complete control; for Plant response rating, Horseweed: 500 g ai/ha, visual injury, 0 to 100 scale (0 no effect, 100 complete control)
Summary of the method: as §2

blackgrass [7] = assay: Test A preemergence; assay type: in vivo, Alopecurus myosuroides; details: 0 to 100 scale
Summary of the method: as §2

rice = assay: Test B flooded paddy test; assay type: in vivo, Oryza sativa; details: 250 g ai/ha, Flood, 13 days, 0 to 100 scale (0 no effect, 100 complete control)
Summary of the method: as §1

foxtail, giant = assay: Test A preemergence; assay type: in vivo, Setaria faberi; details: 0 to 100 scale
Summary of the method: as §2

corn [8] = assay: Test A preemergence; assay type: in vivo, Zea mays; details: 0 to 100 scale
Summary of the method: as §2

sedge, umbrella = assay: Test B flooded paddy test; assay type: in vivo, Cyperus difformis; details: 250 g ai/ha, Flood, 13 days, 0 to 100 scale (0 no effect, 100 complete control)
Summary of the method: as §1

ryegrass, Italian [9] = assay: Test A postemergence; assay type: in vivo, Lolium multiflorum; details: postemergence, 10 days; for Ryegrass, Italian plant response rating: 125 g ai/ha, 0 to 100 scale, 0 no effect, 100 complete control; for Plant response rating, Ryegrass, Italian: 500 g ai/ha, visual injury, 0 to 100 scale (0 no effect, 100 complete control)
Summary of the method: as §2

barnyardgrass [10] = assay: Test A postemergence; assay type: in vivo, Echinochloa crusgalli; details: postemergence, 10 days; for Barnyardgrass plant response rating: 125 g ai/ha, 0 to 100 scale, 0 no effect, 100 complete control; for Plant response rating, Barnyardgrass: 500 g ai/ha, visual injury, 0 to 100 scale (0 no effect, 100 complete control)
Excerpt: (§3) Seeds of plant species selected from barnyardgrass (Echinochloa crusgalli), blackgrass (Alopecurus myosuroides), corn (Zea mays), foxtail, giant (giant foxtail, Setaria faberi), goosegrass (Eleusine indica), kochia (Bassia scoparia), oat, wild (wild oat, Avena fatua), pigweed, palmer (palmer amaranth, palmer pigweed, Amaranthus palmeri), Pigweed, Redroot (redroot pigweed, Amaranthus retroflexus), ragweed (common ragweed, Ambrosia artemisiifolia), ryegrass, Italian (italian ryegrass, Lolium multiflorum), soybean (Glycine max), and wheat (Triticum aestivum) were planted into a blend of loam soil and sand and treated preemergence with a directed soil spray using test chemicals formulated in a non-phytotoxic solvent mixture which included a surfactant. At the same time, plants selected from these crops and weed species and also galium (catchweed bedstraw, Galium aparine) and horseweed (Erigeron canadensis) were planted in pots containing the same blend of loam soil and sand and treated with postemergence applications of test chemicals formulated in the same manner. Plants ranged in height from 2 to 10 cm and were in the one- to two-leaf stage for the postemergence treatment. Treated plants and untreated controls were maintained in a greenhouse for 10 days, after which time all treated plants were compared to untreated controls and visually evaluated for injury. Plant response ratings, summarized in Table A, are based on a 0 to 100 scale where 0 is no effect and 100 is complete control. A dash (-) response means no test result.

ryegrass, Italian [11] = assay: Test A preemergence; assay type: in vivo, Lolium multiflorum; details: 0 to 100 scale
Summary of the method: as §2

ducksalad = assay: Test B flooded paddy test; assay type: in vivo, Heteranthera limosa; details: 250 g ai/ha, Flood, 13 days, 0 to 100 scale (0 no effect, 100 complete control)
Summary of the method: as §1

ragweed [12] = assay: Test A preemergence; assay type: in vivo, Ambrosia artemisiifolia; details: 0 to 100 scale
Summary of the method: as §2

kochia [13] = assay: Test A preemergence; assay type: in vivo, Bassia scoparia; details: 0 to 100 scale
Summary of the method: as §2

pigweed, palmer [14] = assay: Test A preemergence; assay type: in vivo, Amaranthus palmeri; details: 0 to 100 scale
Summary of the method: as §2

pigweed, palmer [15] = assay: Test A postemergence; assay type: in vivo, Amaranthus palmeri; details: postemergence, 10 days; for Pigweed, Palmer plant response rating: 125 g ai/ha, 0 to 100 scale, 0 no effect, 100 complete control; for Plant response rating, Pigweed, Palmer: 500 g ai/ha, visual injury, 0 to 100 scale (0 no effect, 100 complete control)
Summary of the method: as §2

barnyardgrass [16] = assay: Test A preemergence; assay type: in vivo, Echinochloa crusgalli; details: visual injury after 10 days, 0 to 100 scale, 0 is no effect, 100 is complete control
Excerpt: as §3

wheat [17] = assay: Test A preemergence; assay type: in vivo, Triticum aestivum; details: 0 to 100 scale
Summary of the method: as §2

oat, wild [18] = assay: Test A preemergence; assay type: in vivo, Avena fatua; details: 0 to 100 scale
Summary of the method: as §2

blackgrass [19] = assay: Test A postemergence; assay type: in vivo, Alopecurus myosuroides; details: postemergence, 10 days; for Blackgrass plant response rating: 125 g ai/ha, 0 to 100 scale, 0 no effect, 100 complete control; for Plant response rating, Blackgrass: 500 g ai/ha, visual injury, 0 to 100 scale (0 no effect, 100 complete control)
Summary of the method: as §2

ragweed [20] = assay: Test A postemergence; assay type: in vivo, Ambrosia artemisiifolia; details: postemergence, 10 days; for Ragweed plant response rating: 125 g ai/ha, 0 to 100 scale, 0 no effect, 100 complete control; for Plant response rating, Ragweed: 500 g ai/ha, visual injury, 0 to 100 scale (0 no effect, 100 complete control)
Summary of the method: as §2

galium = assay: Test A postemergence; assay type: in vivo, Galium aparine; details: postemergence, 10 days; for Galium plant response rating: 125 g ai/ha, 0 to 100 scale, 0 no effect, 100 complete control; for Plant response rating, Galium: 500 g ai/ha, visual injury, 0 to 100 scale (0 no effect, 100 complete control)
Summary of the method: as §2

kochia [21] = assay: Test A postemergence; assay type: in vivo, Bassia scoparia; details: postemergence, 10 days; for Kochia plant response rating: 125 g ai/ha, 0 to 100 scale, 0 no effect, 100 complete control; for Plant response rating, Kochia: 500 g ai/ha, visual injury, 0 to 100 scale (0 no effect, 100 complete control)
Summary of the method: as §2

[22] = 500 g ai/ha, visual injury after 10 days, 0 is no effect, 100 is complete control
[23] = 125 g ai/ha, visual injury after 10 days, 0 is no effect, 100 is complete control

Cc1ccc(-n2cnc(C(C)(C)O)n2)cc1C(=O)N1C[C@H](C)Oc2c(Cl)cccc21 [Compound 149]
35: Plant response rating, Barnyardgrass (barnyardgrass [1])
70: Plant response rating, Horseweed (horseweed)
80: Plant response rating, Blackgrass (blackgrass [7]; 125 g ai/ha) | Ryegrass, Italian plant response rating (ryegrass, Italian [9]) | Pigweed, Palmer plant response rating (pigweed, palmer [15]) | Ragweed plant response rating (ragweed [20]) | Kochia plant response rating (kochia [21])
90: Wheat plant response rating (wheat [3]) | Plant response rating, Wheat (wheat [3]) | Corn plant response rating (corn [4]) | Oat, Wild plant response rating (oat, wild [5]) | Plant response rating, Oat, Wild (oat, wild [5]) | Plant response rating, Blackgrass (blackgrass [7]; [22]) | Plant response rating, Corn (corn [8]; [22]) | Plant response rating, Ragweed (ragweed [12]; [22]) | Plant response rating, Pigweed, Palmer (pigweed, palmer [14]; 125 g ai/ha) | Plant response rating, Pigweed, Palmer (pigweed, palmer [15]) | Plant response rating, Wheat (wheat [17]; [22]) | Plant response rating, Oat, Wild (oat, wild [18]; 125 g ai/ha) | Plant response rating, Oat, Wild (oat, wild [18]; [22]) | Blackgrass plant response rating (blackgrass [19]) | Plant response rating, Blackgrass (blackgrass [19]) | Plant response rating, Ragweed (ragweed [20]) | Plant response rating, Kochia (kochia [21])
75: Plant response rating, Ducksalad (ducksalad)
50: Horseweed plant response rating (horseweed) | Barnyardgrass plant response rating (barnyardgrass [10])
20: Plant response rating, Rice (rice)
60: Plant response rating, Corn (corn [8]; 125 g ai/ha)
30: Plant response rating, Wheat (wheat [17]; 125 g ai/ha)
100: Soybean plant response rating (soybean [2]) | Plant response rating, Soybean (soybean [2]) | Plant response rating, Corn (corn [4]) | Plant response rating, Soybean (soybean [6]; 125 g ai/ha) | Plant response rating, Soybean (soybean [6]; [22]) | Plant response rating, Foxtail, Giant (foxtail, giant; 125 g ai/ha) | Plant response rating, Foxtail, Giant (foxtail, giant; [22]) | Plant response rating, Sedge, Umbrella (sedge, umbrella) | Plant response rating, Ryegrass, Italian (ryegrass, Italian [9]) | Plant response rating, Barnyardgrass (barnyardgrass [10]) | Plant response rating, Ryegrass, Italian (ryegrass, Italian [11]; 125 g ai/ha) | Plant response rating, Ryegrass, Italian (ryegrass, Italian [11]; [22]) | Plant response rating, Ragweed (ragweed [12]; 125 g ai/ha) | Plant response rating, Kochia (kochia [13]; 125 g ai/ha) | Plant response rating, Kochia (kochia [13]; [22]) | Plant response rating, Pigweed, Palmer (pigweed, palmer [14]; [22]) | Plant response rating, Barnyardgrass (barnyardgrass [16]; 125 g ai/ha) | Plant response rating, Barnyardgrass (barnyardgrass [16]; 500 g ai/ha) | Galium plant response rating (galium) | Plant response rating, Galium (galium)

C[C@H]1CN(C(=O)c2cc(C3CC3)cc(-n3cncn3)c2)c2cccc(Cl)c2O1 [Compound 136]
90: Plant response rating, Corn (corn [4]) | Plant response rating, Blackgrass (blackgrass [7]; [22]) | Plant response rating, Ryegrass, Italian (ryegrass, Italian [9]) | Plant response rating, Ryegrass, Italian (ryegrass, Italian [11]; [22]) | Plant response rating, Pigweed, Palmer (pigweed, palmer [15]) | Plant response rating, Barnyardgrass (barnyardgrass [16]; 500 g ai/ha) | Blackgrass plant response rating (blackgrass [19])
10: Oat, Wild plant response rating (oat, wild [5]) | Plant response rating, Soybean (soybean [6]; [23]) | Plant response rating, Wheat (wheat [17]; [23])
100: Soybean plant response rating (soybean [2]) | Plant response rating, Soybean (soybean [2]) | Plant response rating, Pigweed, Palmer (pigweed, palmer [14]; [22]) | Plant response rating, Blackgrass (blackgrass [19]) | Plant response rating, Galium (galium)
30: Plant response rating, Wheat (wheat [3]) | Corn plant response rating (corn [4]) | Plant response rating, Oat, Wild (oat, wild [5]) | Plant response rating, Corn (corn [8]; [22]) | Pigweed, Palmer plant response rating (pigweed, palmer [15]) | Plant response rating, Barnyardgrass (barnyardgrass [16]; 125 g ai/ha) | Plant response rating, Wheat (wheat [17]; [22]) | Plant response rating, Oat, Wild (oat, wild [18]; [22]) | Plant response rating, Ragweed (ragweed [20]) | Kochia plant response rating (kochia [21])
70: Plant response rating, Blackgrass (blackgrass [7]; [23]) | Plant response rating, Barnyardgrass (barnyardgrass [10]) | Plant response rating, Kochia (kochia [13]; [22]) | Plant response rating, Pigweed, Palmer (pigweed, palmer [14]; [23]) | Plant response rating, Kochia (kochia [21])
80: Plant response rating, Ryegrass, Italian (ryegrass, Italian [11]; [23]) | Galium plant response rating (galium)
60: Plant response rating, Soybean (soybean [6]; [22]) | Ryegrass, Italian plant response rating (ryegrass, Italian [9])
0: Plant response rating, Barnyardgrass (barnyardgrass [1]) | Horseweed plant response rating (horseweed) | Plant response rating, Horseweed (horseweed) | Plant response rating, Rice (rice) | Plant response rating, Corn (corn [8]; [23]) | Plant response rating, Sedge, Umbrella (sedge, umbrella) | Plant response rating, Ducksalad (ducksalad) | Plant response rating, Ragweed (ragweed [12]; [23]) | Plant response rating, Kochia (kochia [13]; [23])
20: Wheat plant response rating (wheat [3]) | Barnyardgrass plant response rating (barnyardgrass [10]) | Plant response rating, Ragweed (ragweed [12]; [22]) | Plant response rating, Oat, Wild (oat, wild [18]; [23]) | Ragweed plant response rating (ragweed [20])
